{"source": "patent US20200030253A1", "about": "“Methods and compositions for treatment of body conditions” (priority 2018, published 2020)", "origin": "cited, not measured here", "details": "octanol-water", "data": [{"smiles": "C=C(C)[C@@H]1CCC(C)=C[C@H]1c1c(O)cc(CCCCC)cc1O", "note": "[Cannabidiol]", "values": [{"measurement": "Koctanol-water (lipophilicity)", "value": "6-7"}]}]}
